Results reported in patent EP0292291B1, “Linear and cyclic analogs of alpha-msh fragments with extraordinary potency” (UNIVERSITY PATENTS, INC., priority 1987, dated 1988).
Read-outs that look alike come from different tables or passages of the source. Positions of bridges follow the written chain, without caps; N, C: chain ends. Non-standard residues stand in square brackets, D forms with d. Residues, ends and D or L forms follow the SMILES beside them. Nle = CCCC[C@H](N)C(=O)O; Dab = NCC[C@H](N)C(=O)O

How the values were obtained:
Frog (Rana pipiens) Skin [1] = conditions: earlier studies, cited from earlier work; for Relative Potency Frog: relative to alpha-MSH = 1.0
[2] = test system: Lizard (Anolis carolinensis) Skin; conditions: relative to alpha-MSH = 1.0; earlier studies; cited from earlier work
[3] = test system: Lizard (Anolis carolinensis) Skin; format: cell-based
Text: (§1) Based upon the structural relationship of alpha-MSH (and its analogues and fragments) to its biological potency, using in vitro a frog skin bioassay system, the active site of alpha-MSH appears to be the common active core sequence suitably modified Ac-Met-Glu-His-Phe-Arg-Trp-Gly-NH₂. This fragment (Alpha-MSH₄₋₁₀) has been synthesized and tested for its melanocyte stimulating activity in frog skin and shown to be a weak agonist when compared to the native hormone. The amino acid exchanges in position 5(Glu) and 10(Gly) have not, previous to the making of the present invention, been investigated. […] The following table summarizes some of these studies.
(§2) The biological potencies of alpha-MSH, the linear, and the cyclic analogues were determined by their ability to stimulate melanosome dispersion in vitro in the frog and lizard bioassays. These in vitro assays provide clear cut dose response curves (between 2.5 x 10⁻¹¹ and 4 x 10⁻¹⁰ M) and can detect minimal concentration of alpha-MSH of about 10⁻¹¹ M. The assays are based upon the centrifugal dispersion of melanosomes (melanin granules) within the dendritic processes of integumental dermal melanophores leading to darkening of the skin. All the test solutions were prepared via serial dilutions from a stock solution (10⁻⁴ M). The frogs (Rans pipiens) used in these evaluations were obtained from Kons Scientific, Germantown, WI, and the lizards (Anolis carolinensis) were from the Snake Farm, La Place, LA.

Frog (Rana pipiens) Skin [4] = format: cell-based
Text: as §1, §2

[5] = linear analogues, P = prolonged action
[6] = linear analogues, relative to alpha-MSH = 1.0
[7] = cyclic analogues, p = prolonged action
[8] = cyclic analogues, relative to alpha-MSH = 1.0

Compound | Residual Activity Lizard [3, 5] | Biological Potency Lizard [3, 6] | Residual Activity Frog (Frog (Rana pipiens) Skin [4]; [5]) | Biological Potency Frog (Frog (Rana pipiens) Skin [4]; [6]) | other results
Ac-[Nle⁴,D-Phe⁷]-alpha-MSH₄₋₁₁NH₂ |  |  |  |  | Relative Potency Frog (Frog (Rana pipiens) Skin [1]): 0.16; Relative Potency Lizard [2]: 8.0
CCCC[C@H](NC(C)=O)C(=O)N[C@@H](CC(=O)O)C(=O)N[C@@H](Cc1c[nH]cn1)C(=O)N[C@H](Cc1ccccc1)C(=O)N[C@@H](CCCNC(=N)N)C(=O)N[C@@H](Cc1c[nH]c2ccccc12)C(=O)NCC(N)=O [Analogue 5] | P(-) | 8.0 | P(-) | 0.1 | 
Ac-[Nle⁴]-alpha-MSH₄₋₁₀NH₂ |  |  |  |  | Relative Potency Frog (Frog (Rana pipiens) Skin [1]): 0.002; Relative Potency Lizard [2]: 0.06
CCCC[C@H](NC(C)=O)C(=O)N[C@H]1CC(=O)NCCC[C@@H](C(N)=O)NC(=O)[C@H](Cc2c[nH]c3ccccc23)NC(=O)[C@H](CCCNC(=N)N)NC(=O)[C@@H](Cc2ccccc2)NC(=O)[C@H](Cc2c[nH]cn2)NC1=O [Analogue 18] |  |  |  |  | Residual Activity Lizard [3, 7]: p(-); Biological Potency Lizard [3, 8]: 20.0; Residual Activity Frog (Frog (Rana pipiens) Skin [4]; [7]): p(-); Biological Potency Frog (Frog (Rana pipiens) Skin [4]; [8]): 1.0
CCCC[C@H](NC(C)=O)C(=O)N[C@@H](CCC(=O)O)C(=O)N[C@@H](Cc1c[nH]cn1)C(=O)N[C@H](Cc1ccccc1)C(=O)N[C@@H](CCCNC(=N)N)C(=O)N[C@@H](Cc1c[nH]c2ccccc12)C(=O)N[C@@H](CCCCN)C(N)=O [Analogue 6] | P(-) | 8.0 | P(-) | 0.2 | 
CCCC[C@H](NC(C)=O)C(=O)N[C@@H](CC(=O)O)C(=O)N[C@@H](Cc1c[nH]cn1)C(=O)N[C@@H](Cc1ccccc1)C(=O)N[C@@H](CCCNC(=N)N)C(=O)N[C@@H](Cc1c[nH]c2ccccc12)C(=O)N[C@@H](CCCCN)C(N)=O [Analogue 14] | P(-) | 0.08 |  |  | 
CCCC[C@H](NC(C)=O)C(=O)N[C@@H](CCC(=O)O)C(=O)N[C@@H](Cc1c[nH]cn1)C(=O)N[C@H](Cc1ccccc1)C(=O)N[C@@H](CCCNC(=N)N)C(=O)N[C@@H](Cc1c[nH]c2ccccc12)C(=O)N[C@@H](CCCCN)C(=O)NCC(=O)N1CCC[C@H]1C(=O)N[C@H](C(N)=O)C(C)C [Analogue 3] (Ac-[Nle]EH[dF]RWKGPV-NH2) | P(+) | 8.0 | P(+) | 0.8 | 
Ac-[Nle⁴]-alpha-MSH₄₋₁₁NH₂ |  |  |  |  | Relative Potency Frog (Frog (Rana pipiens) Skin [1]): 0.002; Relative Potency Lizard [2]: 1.0
Ac-[Nle⁴,D-Phe⁷]-alpha -MSH₁₋₁₃NH₂ |  |  |  |  | Relative Potency Frog (Frog (Rana pipiens) Skin [1]): 60.0; Relative Potency Lizard [2]: 5.0
CCCC[C@H](NC(C)=O)C(=O)N[C@@H](CC(=O)O)C(=O)N[C@@H](Cc1c[nH]cn1)C(=O)N[C@H](Cc1ccccc1)C(=O)N[C@@H](CCCNC(=N)N)C(=O)N[C@@H](Cc1c[nH]c2ccccc12)C(=O)N[C@@H](CCN)C(N)=O [Analogue 11] | P(-) | 50.0 | P(-) | 0.9 | 
CCCC[C@H](NC(C)=O)C(=O)N[C@H]1CCC(=O)NCCCC[C@@H](C(=O)NCC(=O)N2CCC[C@H]2C(=O)N[C@H](C(N)=O)C(C)C)NC(=O)[C@H](Cc2c[nH]c3ccccc23)NC(=O)[C@H](CCCNC(=N)N)NC(=O)[C@@H](Cc2ccccc2)NC(=O)[C@H](Cc2c[nH]cn2)NC1=O [Analogue 15] (Ac-[Nle]EH[dF]RWKGPV-NH2; lactam 2-7) |  |  |  |  | Biological Potency Lizard [3]: 6.0; Residual Activity Lizard [3, 7]: p(+); Biological Potency Frog (Frog (Rana pipiens) Skin [4]): 1.0; Residual Activity Frog (Frog (Rana pipiens) Skin [4]; [7]): p(+)
Ac-Met-Glu-His-Phe-Arg-Trp-Gly-NH₂ [Ac-alpha -MSH₄₋₁₀NH₂] |  |  |  |  | Relative Potency Frog (Frog (Rana pipiens) Skin [1]): 0.0003; melanocyte stimulating activity in frog skin (Frog (Rana pipiens) Skin [1]; result in words, compared to the native hormone): weak agonist; Relative Potency Lizard [2]: 0.004
CCCC[C@H](NC(C)=O)C(=O)N[C@@H](CCC(=O)O)C(=O)N[C@@H](Cc1c[nH]cn1)C(=O)N[C@H](Cc1ccccc1)C(=O)N[C@@H](CCCNC(=N)N)C(=O)N[C@@H](Cc1c[nH]c2ccccc12)C(=O)N[C@@H](CCN)C(N)=O [Analogue 10] (Ac-[Nle]EH[dF]RW[Dab]-NH2) | P(±) | 10.0 | P(±) | 0.9 | 
CCCC[C@H](NC(C)=O)C(=O)N[C@H]1CCC(=O)NCCCC[C@@H](C(N)=O)NC(=O)[C@H](Cc2c[nH]c3ccccc23)NC(=O)[C@H](CCCNC(=N)N)NC(=O)[C@@H](Cc2ccccc2)NC(=O)[C@H](Cc2c[nH]cn2)NC1=O [Analogue 16] |  |  |  |  | Residual Activity Lizard [3, 7]: p(+); Biological Potency Lizard [3, 8]: 9.0; Residual Activity Frog (Frog (Rana pipiens) Skin [4]; [7]): p(+); Biological Potency Frog (Frog (Rana pipiens) Skin [4]; [8]): 0.5
CCCC[C@H](NC(C)=O)C(=O)N[C@@H](CC(=O)O)C(=O)N[C@@H](Cc1c[nH]cn1)C(=O)N[C@H](Cc1ccccc1)C(=O)N[C@@H](CCCNC(=N)N)C(=O)N[C@@H](Cc1c[nH]c2ccccc12)C(=O)N[C@@H](CN)C(N)=O [Analogue 12] | P(-) | 8.0 | P(-) | 0.2 | 
CCCC[C@H](NC(=O)[C@H](CO)NC(=O)[C@H](Cc1ccc(O)cc1)NC(=O)[C@H](CO)NC(C)=O)C(=O)N[C@@H](CC(=O)O)C(=O)N[C@@H](Cc1c[nH]cn1)C(=O)N[C@H](Cc1ccccc1)C(=O)N[C@@H](CCCNC(=N)N)C(=O)N[C@@H](Cc1c[nH]c2ccccc12)C(=O)N[C@@H](CCCCN)C(=O)NCC(=O)N1CCC[C@H]1C(=O)N[C@H](C(N)=O)C(C)C [Analogue 2] (Ac-SYS[Nle]DH[dF]RWKGPV-NH2) | P(-) | 8.0 | P(+) | 9.0 | 
CCCC[C@H](NC(C)=O)C(=O)N[C@H]1CC(=O)NC[C@@H](C(N)=O)NC(=O)[C@H](Cc2c[nH]c3ccccc23)NC(=O)[C@H](CCCNC(=N)N)NC(=O)[C@@H](Cc2ccccc2)NC(=O)[C@H](Cc2c[nH]cn2)NC1=O [Analogue 20] |  |  |  |  | Residual Activity Lizard [3, 7]: p(-); Biological Potency Lizard [3, 8]: 5.0; Residual Activity Frog (Frog (Rana pipiens) Skin [4]; [7]): p(-); Biological Potency Frog (Frog (Rana pipiens) Skin [4]; [8]): 0.01
CCCC[C@H](NC(=O)[C@H](CO)NC(=O)[C@H](Cc1ccc(O)cc1)NC(=O)[C@H](CO)NC(C)=O)C(=O)N[C@@H](CCC(=O)O)C(=O)N[C@@H](Cc1c[nH]cn1)C(=O)N[C@H](Cc1ccccc1)C(=O)N[C@@H](CCCNC(=N)N)C(=O)N[C@@H](Cc1c[nH]c2ccccc12)C(=O)N[C@@H](CCCCN)C(=O)NCC(=O)N1CCC[C@H]1C(=O)N[C@H](C(N)=O)C(C)C [Analogue 1] (Ac-SYS[Nle]EH[dF]RWKGPV-NH2) | P(-) | 8.0 | P(+) | 6.0 | 
CCCC[C@H](NC(C)=O)C(=O)N[C@@H](CC(=O)O)C(=O)N[C@@H](Cc1c[nH]cn1)C(=O)N[C@H](Cc1ccccc1)C(=O)N[C@@H](CCCNC(=N)N)C(=O)N[C@@H](Cc1c[nH]c2ccccc12)C(=O)N[C@@H](CCCCN)C(N)=O [Analogue 7] | P(-) | 8.0 |  |  | 
CCCC[C@H](NC(C)=O)C(=O)N[C@@H](CC(=O)O)C(=O)N[C@@H](Cc1c[nH]cn1)C(=O)N[C@H](Cc1ccccc1)C(=O)N[C@@H](CCCNC(=N)N)C(=O)N[C@@H](Cc1c[nH]c2ccccc12)C(=O)N[C@@H](CCCCN)C(=O)NCC(=O)N1CCC[C@H]1C(=O)N[C@H](C(N)=O)C(C)C [Analogue 4] (Ac-[Nle]DH[dF]RWKGPV-NH2) | P(+) | 10.0 | P(+) | 1.0 | 
CCCC[C@H](NC(C)=O)C(=O)N[C@@H](CC(=O)O)C(=O)N[C@@H](Cc1c[nH]cn1)C(=O)N[C@H](Cc1ccccc1)C(=O)N[C@@H](CCCNC(=N)N)C(=O)N[C@@H](Cc1c[nH]c2ccccc12)C(=O)N[C@@H](CCCN)C(N)=O [Analogue 9] | P(-) | 10.0 |  | 0.9 | 
CCCC[C@H](NC(C)=O)C(=O)N[C@@H](CCC(=O)O)C(=O)N[C@@H](Cc1c[nH]cn1)C(=O)N[C@H](Cc1ccccc1)C(=O)N[C@@H](CCCNC(=N)N)C(=O)N[C@@H](Cc1c[nH]c2ccccc12)C(=O)N[C@@H](CCCN)C(N)=O [Analogue 8] | P(-) | 8.0 | P(-) | 0.6 | 
CCCC[C@H](NC(C)=O)C(=O)N[C@H]1CC(=O)NCC[C@@H](C(N)=O)NC(=O)[C@H](Cc2c[nH]c3ccccc23)NC(=O)[C@H](CCCNC(=N)N)NC(=O)[C@@H](Cc2ccccc2)NC(=O)[C@H](Cc2c[nH]cn2)NC1=O [Analogue 19] |  |  |  |  | Residual Activity Lizard [3, 7]: p(-); Biological Potency Lizard [3, 8]: 5.0; Residual Activity Frog (Frog (Rana pipiens) Skin [4]; [7]): p(-); Biological Potency Frog (Frog (Rana pipiens) Skin [4]; [8]): 1.0
CCCC[C@H](NC(C)=O)C(=O)N[C@@H](CCC(=O)O)C(=O)N[C@@H](Cc1c[nH]cn1)C(=O)N[C@@H](Cc1ccccc1)C(=O)N[C@@H](CCCNC(=N)N)C(=O)N[C@@H](Cc1c[nH]c2ccccc12)C(=O)N[C@@H](CCCCN)C(N)=O [Analogue 13] | P(-) | 0.08 | P(+) | 0.001 | 
